Measurements published in patent US9795646B2, “Boswellia oil, its fractions and compositions for enhancing brain function” (LAILA NUTRACEUTICALS, priority 2010, dated 2017).
In brackets after ≈: the same amount, converted by molar mass. Several values for one entry are separate records, joined by “and”; a condition that tells them apart may be missing. Identical values can stand only once.

Columns and labels:
Acetylcholinesterase = Acetylcholinesterase (Homo sapiens, UniProt P22303); assay: Acetylcholinesterase inhibitory activity, in vitro enzymatic assay (Ellman method); type: biochemical; settings: Table 3
Sequence of Acetylcholinesterase (P22303 32-614, species assumed): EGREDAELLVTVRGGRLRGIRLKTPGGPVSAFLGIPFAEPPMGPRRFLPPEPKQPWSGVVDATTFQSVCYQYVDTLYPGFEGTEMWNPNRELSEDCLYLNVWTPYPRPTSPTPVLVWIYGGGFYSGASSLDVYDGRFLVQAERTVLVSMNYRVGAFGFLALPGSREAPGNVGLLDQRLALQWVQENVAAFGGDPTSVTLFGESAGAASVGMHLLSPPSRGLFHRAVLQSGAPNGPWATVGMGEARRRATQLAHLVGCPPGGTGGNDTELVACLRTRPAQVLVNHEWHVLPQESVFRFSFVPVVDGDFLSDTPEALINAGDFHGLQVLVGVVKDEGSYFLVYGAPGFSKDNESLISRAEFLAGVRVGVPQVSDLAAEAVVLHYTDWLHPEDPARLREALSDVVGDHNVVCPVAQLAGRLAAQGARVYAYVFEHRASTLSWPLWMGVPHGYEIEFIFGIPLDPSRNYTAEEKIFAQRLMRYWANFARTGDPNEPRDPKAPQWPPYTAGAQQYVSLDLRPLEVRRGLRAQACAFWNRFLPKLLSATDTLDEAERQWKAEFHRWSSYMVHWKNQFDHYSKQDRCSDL
Description: (§1) As a part of developing new agents for improving brain/mental function and alleviating disease conditions related to cognition and memory deficits, a large number of plant extracts have been screened for their inhibitory property on Acetylcholinesterase enzyme activity. The assay was performed in vitro by the method of Ellman et al., with minor modifications, using acetylthiocholine iodide as a substrate (Lee J. H., et. al. Arch Pharm Res 2004, 27(1): 53-56). […] Its acetylcholinesterase inhibitory activity was also evaluated by a cell based in vitro assay in Rat pheochromocytoma PC 12 cells. […] Rat pheochromocytoma PC 12 cells were equally distributed with phenol red free Dulbecco's modified Eagle's red medium (DMEM) (Sigma Life Science, USA) containing 10% fetal bovine serum (FBS) in 24-well plate. […] Thereafter, cells were induced with 1 μg/mL of β-amyloid peptide (Calbiochem, USA) for 24 h at 37° C. After 24 h, cells were collected and washed twice with 1×PBS by centrifugation at 1200 rpm for 5 min at 4° C. The cell extracts were prepared in solubilization buffer and the cell lysates were analyzed for acetylcholine esterase (AChE) activity.
Acetylcholinesterase activity is measured using the substrate acetylthiocholine iodide, which is converted to thiocholine. The reaction of thiocholine with the chromogenic substrate Dithionitrobenzoic acid (DTNB) leads to the formation of a yellow anion, Nitrobenzoic acid, which absorbs strongly at 412 nm. Incubation was done for 10 min.
The AChE assay was performed by the method of Ellman et al, with minor modifications, using acetylthiocholine iodide as a substrate (Lee J. H., et. al. Arch Pharm Res 2004, 27(1): 53-56). Ellmans reaction mixture contains 0.5 mM acetylthiocholine iodide and 1 mM 5,5′-dithio-bis-(2-nitrobenzoic acid) in a 50 mM sodium phosphate buffer (pH 8.0). […] For blanks, enzyme was replaced with phosphate buffer. The reaction mixture was mixed thoroughly, 100 μl of Ellman's reagent was added and incubated at room temperature for 10 min. The absorbance was measured at 412 nm using microplate reader. The percentage inhibition of enzyme activity was calculated by comparing OD's of tests wells with that of control wells using the following formula. Calculations: % inhibition=[(control−sample)/control]×100.

[1] = target: T1, acetylcholine esterase (AChE) (Rattus norvegicus, UniProt P37136); assay: Acetylcholine esterase inhibitory activity in β-amyloid peptide induced PC 12 cells; type: cell-based; settings: PC 12 cells
T1 construct: The cell extracts were used as samples for measuring the acetylcholine esterase (AChE) activity; endogenous in cells; host or cells: rat pheochromocytoma PC 12 cells, induced with β-amyloid peptide
T1 sequence (P37136 32-614): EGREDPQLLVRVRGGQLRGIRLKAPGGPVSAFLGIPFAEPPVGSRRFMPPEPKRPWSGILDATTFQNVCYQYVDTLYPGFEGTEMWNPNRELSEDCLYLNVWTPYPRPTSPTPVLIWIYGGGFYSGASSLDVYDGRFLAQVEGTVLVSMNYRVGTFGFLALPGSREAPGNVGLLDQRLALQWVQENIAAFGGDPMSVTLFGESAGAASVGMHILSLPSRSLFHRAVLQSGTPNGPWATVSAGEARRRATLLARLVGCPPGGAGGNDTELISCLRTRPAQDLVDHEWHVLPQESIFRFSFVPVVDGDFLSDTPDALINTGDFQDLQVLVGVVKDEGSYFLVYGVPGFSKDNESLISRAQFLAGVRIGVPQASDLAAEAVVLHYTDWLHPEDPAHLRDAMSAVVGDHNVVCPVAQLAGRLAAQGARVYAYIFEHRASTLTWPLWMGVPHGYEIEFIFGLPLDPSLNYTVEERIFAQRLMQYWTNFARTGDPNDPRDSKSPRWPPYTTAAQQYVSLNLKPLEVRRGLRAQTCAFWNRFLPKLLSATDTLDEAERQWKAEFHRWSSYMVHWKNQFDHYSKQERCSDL
Description: as §1
The inhibitory property on the enzyme activity was assessed in β-amyloid peptide induced-rat pheochromocytoma PC 12 cells. Rat pheochromocytoma PC 12 cells were equally distributed with phenol red free Dulbecco's modified Eagle's red medium (DMEM) (Sigma Life Science, USA) containing 10% fetal bovine serum (FBS) in 24-well plate. […] Thereafter, cells were induced with 1 μg/mL of β-amyloid peptide (Calbiochem, USA) for 24 h at 37° C. After 24 h, cells were collected and washed twice with 1×PBS by centrifugation at 1200 rpm for 5 min at 4° C. Cell extracts were prepared in solubilization buffer (10 mM Tris, pH 7.2; 100 mM NaCl, 50 mM MgCl2, 1% Triton X-100). The cell extracts were used as samples for measuring the acetylcholine esterase (AChE) activity.
Cell extract samples (100 μl) were dispensed into each well of 96-well microtitre plate. Fifty micro liters of DTNB (Dithiobisnitro benzoate) solution was added to each well and incubated for 5 min at room temperature. After incubation, 50 μl of acetyl choline iodide solution was added to each well and absorbance was read immediately at 405 nm for 12 min at 2 min intervals. A standard curve was constructed by using serial concentrations of acetyl cholinesterase (0-100 mU). Total protein present in 100 μl aliquot of cell extract was calculated by Bradford method and the enzyme activity was normalized and expressed as unit activity per milligram of protein.

Sprague Dawley rats = assay: Spatial learning and memory improvement, elevated radial arm maze (RAM); type: in vivo, rat; settings: positive control 150 mg/kg, vs control group
From the text: The animal study protocol was approved by institutional animal ethics committee. Sprague Dawley rats were acclimatized for one week and healthy rats were selected for the study. The selected rats were pre-trained in elevated radial arm maze (RAM) adapted rats were allocated to various treatment groups each containing eight rats. After completion of pre-training, the oral treatment was initiated to the animals and continued daily up to two weeks. During this treatment phase the rats were placed on the RAM for 10 min each to recognize the food pellets present in the three different colored arms. During training the spatial learning was estimated by measuring various parameters like number of days required to learn the task, latency in finding food and number of wrong entries/attempts. After this treatment and training the animals were given rest without treatment or training for one week (3rd week). On 4th week, the animals were treated with allocated doses of test products and memory retention test was assessed using the same animals by measuring latency and number of wrong entries. The data was analyzed using ANOVA followed by a suitable post-hoc test.

[2] = Comparative bioavailability of LI01008 (bisdemethylcurcumin) and its composition (serum, HPLC); settings: oral, LI13124F1 450 mg/kg, LI01008 300 mg/kg
5-lipoxygenase (5-LOX) = target: T2, 5-lipoxygenase (5-LOX) (Homo sapiens, UniProt P09917); settings: read-out: IC50 (5-LOX inhibition); cited from earlier work
T2 sequence (P09917 1-674): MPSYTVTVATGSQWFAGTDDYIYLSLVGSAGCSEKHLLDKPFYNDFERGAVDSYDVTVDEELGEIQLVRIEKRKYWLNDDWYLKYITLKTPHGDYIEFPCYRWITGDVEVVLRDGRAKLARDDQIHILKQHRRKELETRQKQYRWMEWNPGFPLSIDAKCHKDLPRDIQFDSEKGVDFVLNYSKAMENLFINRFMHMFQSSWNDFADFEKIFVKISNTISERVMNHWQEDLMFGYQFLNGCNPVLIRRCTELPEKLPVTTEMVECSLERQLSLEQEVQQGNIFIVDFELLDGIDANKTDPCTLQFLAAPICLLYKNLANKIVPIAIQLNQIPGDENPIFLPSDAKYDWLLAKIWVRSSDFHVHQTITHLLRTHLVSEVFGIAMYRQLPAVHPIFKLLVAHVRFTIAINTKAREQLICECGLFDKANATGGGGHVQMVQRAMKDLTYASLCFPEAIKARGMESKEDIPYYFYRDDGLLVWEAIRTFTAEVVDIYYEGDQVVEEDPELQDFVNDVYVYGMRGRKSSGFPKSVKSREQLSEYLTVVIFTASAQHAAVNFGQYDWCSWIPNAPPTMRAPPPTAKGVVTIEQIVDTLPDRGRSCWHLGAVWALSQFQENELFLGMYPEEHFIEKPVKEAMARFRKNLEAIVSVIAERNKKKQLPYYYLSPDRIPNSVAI

| Molecule | % Inhibition at concentrations of 25 ng (Acetylcholinesterase) [%] | % Inhibition at concentrations of 50 ng (Acetylcholinesterase) [%] | % Inhibition at concentrations of 100 ng (Acetylcholinesterase) [%] | IC50 (Acetylcholinesterase) [µg/mL] | % inhibition in AChE activity ([1]; 100 ng/ml, Table 5) [%] | also measured |
| --- | --- | --- | --- | --- | --- | --- |
| CC(=O)O[C@@H]1CC[C@@]2(C)[C@@H](CC[C@]3(C)[C@@H]2CC=C2[C@@H]4CC(C)(C)CC[C@]4(C)CC[C@]23C)[C@@]1(C)C(=O)O [3-O-acetyl-α-boswellic acid] | 14.86 | 21.28 | 33.11 | >0.1 | 29.22 | – |
| C[C@H]1[C@H](C)CC[C@]2(C)CC[C@]3(C)C(=CC(=O)[C@@H]4[C@@]5(C)CC[C@@H](O)[C@](C)(C(=O)O)[C@@H]5CC[C@]43C)[C@H]12 [11-keto-β-boswellic acid] | 11.82 | 16.36 | 24.55 | >0.1 | 31.39 | – |
| NC(=O)CN1CCCC1=O [Piracetam] | – | – | – | – | – | spatial learning (reduction in latency and Number of wrong entries) (Sprague Dawley rats): significant improvement |
| C[C@H]1[C@H](C)CC[C@]2(C)CC[C@]3(C)C(=CC[C@@H]4[C@@]5(C)CC[C@@H](O)[C@](C)(C(=O)O)[C@@H]5CC[C@]43C)[C@H]12 [β-boswellic acid] | 16.75 | 21.23 | 31.37 | >0.1 | 46.54 | – |
| CC1(C)CC[C@]2(C)CC[C@]3(C)C(=CC[C@@H]4[C@@]5(C)CC[C@@H](O)[C@](C)(C(=O)O)[C@@H]5CC[C@]43C)[C@@H]2C1 [α-boswellic acid] | 13.85 | 21.92 | 39.23 | >0.1 | 38.42 | – |
| CC(=O)O[C@@H]1CC[C@@]2(C)[C@@H](CC[C@]3(C)[C@@H]2CC=C2[C@@H]4[C@@H](C)[C@H](C)CC[C@]4(C)CC[C@]23C)[C@@]1(C)C(=O)O [3-O-acetyl-β-boswellic acid] | 36.29 | 40.32 | 52.02 | 0.09177 (≈ 0.184 µM) | 37.34 | – |
| CN(C)C(=O)Oc1cccc([N+](C)(C)C)c1 [Neostigmin] | – | – | – | – | – | % inhibition in AChE activity ([1]; 20 ng/ml, Table 4): 49.1% and 49.09%; % inhibition in AChE activity ([1]; 20 ng/ml, Table 5): 54.65% |
| O=C(/C=C/c1ccc(O)c(O)c1)CC(=O)/C=C/c1ccc(O)c(O)c1 [LI 01008, bisdemethylcurcumin] | – | – | – | – | – | Serum concentration of bisdemethylcurcumin ([2]; time after admn. 0, suspension in 0.5% CMC): 0; Serum concentration of bisdemethylcurcumin ([2]; time after admn. 0.5 (hours)): 0.07; Serum concentration of bisdemethylcurcumin ([2]; time after admn. 1 (hours)): 0.1085; Serum concentration of bisdemethylcurcumin ([2]; time after admn. 2 (hours)): 0.078; Serum concentration of bisdemethylcurcumin ([2]; time after admn. 4 (hours)): 0.035; Serum concentration of bisdemethylcurcumin ([2]; time after admn. 6 (hours)): 0.00535; Serum concentration of bisdemethylcurcumin ([2]; time after admn. 8 (hours)): 0; Serum concentration of bisdemethylcurcumin ([2]; time after admn. 12 (hours)): 0 |
| 3-O-acetyl-11-keto-β-boswellic acid | 9.64 | 16.07 | 27.5 | >0.1 | 41.67 | IC50 (5-lipoxygenase (5-LOX)): 1500 nM |
